Results as given in PMC7400446, “Antimicrobial and Antifungal Activity of Rare Substituted 1,2,3-Thiaselenazoles and Corresponding Matched Pair 1,2,3-Dithiazoles” (Antibiotics, 2020).
≈ marks a conversion by molar mass, not a printed value. Entries after “also recorded” stand apart in the source; their conditions may differ.

Tests used:
[1] = test system: C. neoformans (Strain ATCC 208821, H99 Type strain); experiment: Antifungal assay, MIC; format: cell-based, Cryptococcus neoformans var. grubii; conditions: for MIC: Cryptococcus neoformans, ATCC208821
Description: (§1) Fungi strains C. albicans (Strain ATCC 90028, CLSI reference) and C. neoformans (Strain ATCC 208821, H99 Type strain), were cultured for 3 days on Yeast Extract-Peptone Dextrose (YPD) agar at 30 °C. A yeast suspension of 1 × 10^6 to 5 × 10^6 CFU/mL (as determined by OD530) was prepared from five colonies. The suspension was subsequently diluted and added to each well of the compound-containing plates giving a final cell density of fungi suspension of 2.5 × 10^3 CFU/mL and a total volume of 50 μL. All plates were covered and incubated at 35 °C for 36 h without shaking.
(§2) Analysis: Growth inhibition of C. albicans was determined measuring absorbance at 630 nm (OD630), while the growth inhibition of C. neoformans was determined measuring the difference in absorbance between 600 and 570 nm (OD600–570), after the addition of resazurin (0.001% final concentration) and incubation at 35 °C for 2 h. The absorbance was measured using a Biotek Multiflo Synergy HTX plate reader. In both cases, the percentage of growth inhibition was calculated for each well, using the negative control (media only) and positive control (fungi without inhibitors) on the same plate. […] Due to a higher variance in growth and inhibition, a lower threshold was applied to the data for C. neoformans.

[2] = test system: A. baumannii (Strain ATCC 19606, Type strain); experiment: Antibacterial assay, MIC; format: cell-based, Acinetobacter baumannii; conditions: for MIC: Acinetobacter baumannii, ATCC19606
Description: (§3) All bacteria, S. aureus (Strain ATCC 43300, MRSA), E. coli (Strain ATCC 25922, FDA control strain), K. pneumoniae (Strain ATCC 700603, MDR), A. baumannii (Strain ATCC 19606, Type strain), P. aeruginosa (Strain ATCC 27853, Quality control strain), were cultured in Cation-adjusted Mueller Hinton broth (CAMHB) at 37 °C overnight. A sample of each culture was then diluted 40-fold in fresh broth and incubated at 37 °C for 1.5–3 h. The resultant mid-log phase cultures were diluted (CFU/mL measured by OD600), then added to each well of the compound containing plates, giving a cell density of 5 × 10^5 CFU/mL and a total volume of 50 μL. All the plates were covered and incubated at 37 °C for 18 h without shaking.
(§4) Analysis: Inhibition of bacterial growth was determined measuring absorbance at 600 nm (OD600), using a Tecan M1000 Pro monochromator plate reader. The percentage of growth inhibition was calculated for each well, using the negative control (media only) and positive control (bacteria without inhibitors) on the same plate as references. […]

HEK293 cells = experiment: Cytotoxicity assay (resazurin); format: cell-based
Description: (§5) HEK293 cells were counted manually in a Neubauer haemocytometer and then plated in the 384-well plates containing the compounds to give a density of 6000 cells/well in a final volume of 50 μL. DMEM supplemented with 10% FBS was used as growth media and the cells were incubated together with the compounds for 20 h at 37 °C in 5% CO2. Analysis: Cytotoxicity (or cell viability) was measured by fluorescence, ex: 560/10 nm, em: 590/10 nm (F560/590), after addition of 5 μL of 25 μgmL^−1 Resazurin (2.3 μgmL^−1 final concentration) and after incubation for further 3h at 37 °C in 5% CO2. The fluorescence intensity was measured using a Tecan M1000 Pro monochromator plate reader, using automatic gain calculation CC50 (concentration at 50% cytotoxicity) were calculated by curve fitting the inhibition values vs. log(concentration) using sigmoidal dose-response function, with variable fitting values for bottom, top and slope.

haemolytic activity = experiment: Haemolysis assay; format: cell-based; conditions: for Hc10 (concentration at 10% haemolytic activity): unit not given
Description: Hc10 (concentration at 10% haemolytic activity) was calculated by curve fitting the inhibition values vs. log(concentration) using a Sigmoidal dose-response function, with variable values for bottom, top and slope. The curve fitting is implemented using Pipeline Pilot’s dose-response component (giving similar results to similar tools such as GraphPad’s Prism and IDBS’s XlFit). […] DMax represents the highest percentage inhibition response for all concentrations tested. […] In addition, the value indicates if samples have been active, but curve fitting failed, mostly because only the single highest concentration was active.

[3] = test system: C. albicans (Strain ATCC 90028, CLSI reference); experiment: Antifungal assay, MIC; format: cell-based, Candida albicans; conditions: for MIC: Candida albicans, ATCC90028
Description: as §1, §2

[4] = test system: S. aureus (Strain ATCC 43300, MRSA); experiment: Antibacterial assay, MIC; format: cell-based, Staphylococcus aureus; conditions: for MIC: Staphylococcus aureus
Description: as §3, §4

[5] = test system: Staphylococcus aureus, Acinetobacter baumannii, Candida albicans and Cryptococcus neoformans var. grubii; experiment: Initial antimicrobial screen (CO-ADD); format: cell-based; conditions: 10 μM; Active / Inactive
Excerpt: We then screened this series of 1,2,3-dithiazoles and 1,2,3-thiaselenazoles (8−15) against Staphylococcus aureus, Acinetobacter baumannii, Candida albicans and Cryptococcus neoformans var. grubii (Table 1) as part of the Community for Antimicrobial Drug Discovery (CO-ADD) initiative to develop new lead compounds [51]. These represent three distinct classes of microbes. Staphylococcus aureus (ATCC 43300) is a gram-positive bacterium derived from the super bug methicillin-resistant Staphylococcus aureus (MRSA). Acinetobacter baumannii (ATCC 19606) is a gram-negative bacterium hospital-derived infection with very few antibiotics that can treat this pathogen. Candida albicans (ATCC 90028) and Cryptococcus neoformans var. grubii (ATCC 208821) are both opportunistic fungi. These fungal pathogens are particularly dangerous for patients in hospital with immunodeficiencies, undergoing cancer chemotherapy and organ transplantation. These strains are considered by the World Health Organization (WHO) to be the highest priority to develop novel antibiotics for control of these bacteria and fungi. These are some of the most difficult to treat, particularly in a hospital setting where sepsis and pneumonia can quickly overcome the body’s immune system.
The 1,2,3-thiaselenazole analog (13) was potent on against three of the four pathogens with a similar profile to 9a without the activity on A. baumannii.
Antimicrobial screening was performed by CO-ADD (The Community for Antimicrobial Drug Discovery), Australia.
as §3, §4
as §1, with “shaking. […]” for “shaking.”

L1210 = test system: L1210; set-up: method as in PMID 19036587, PMID 23010140, PMID 28709952; conditions: cited from earlier work
K562 = test system: K562; set-up: method as in PMID 19036587, PMID 23010140, PMID 28709952; conditions: cited from earlier work
[6] = Cytotoxicity assay (resazurin); format: cell-based; conditions: human; HEK293 cells, 20 h; unit not given in Table 1; read-out: CC50 (concentration at 50% cytotoxicity)
Description: as §5

[7] = ATCC 208821, inhibition ≥70% (method)
[8] = ATCC 19606, MIC = lowest concentration with inhibition ≥80%
[9] = ATCC 43300 (MRSA), MIC = lowest concentration with inhibition ≥80%

| Compound | Hc10 (concentration at 10% haemolytic activity) (haemolytic activity) | Initial Screen [5] | Activity against C. albicans (in words) [3] | melting point | MIC [1, 7] | MIC [2, 8] | CC50 at 20 h [6] | MIC ([3]; ATCC 90028, inhibition ≥80%) | MIC [4, 9] | other results |
| --- | --- | --- | --- | --- | --- | --- | --- | --- | --- | --- |
| 8-Chloroindeno[1,2-d][1,2,3]thiaselenazole [Compound 9a] | >32 | – | – | – | – | – | – | – | – | Antifungal C. neoformans MIC [1, 7]: ≤0.25 µg/mL; Antibacterial A. baumannii MIC [2, 8]: >32 µg/mL; CC50 (concentration at 50% cytotoxicity) (HEK293 cells; 20 h, unit not given in Table 1): >32 µM; Antifungal C. albicans MIC ([3]; ATCC 90028, inhibition ≥80%): ≤0.25 µg/mL; Antibacterial S. aureus MIC [4, 9]: >32 µg/mL |
| 8-Phenylindeno[1,2-d][1,2,3]thiaselenazole [Compound 9b] | – | Inactive | – | – | – | – | – | – | – | – |
| N#Cc1cnn(CCc2ccccc2)c1/N=c1/ssnc1Cl [Compound 1] | – | – | – | – | – | – | – | – | – | IC50 (L1210): 5 µM; IC50 (K562): 3 µM |
| c1ccc(-c2c3ssnc-3c3ccccc23)cc1 [Compound 8a] | – | Inactive | antifungal selective | – | – | – | – | – | – | Activity against C. neoformans (in words) [1]: antifungal selective; Toxicity (in words) (HEK293 cells): no toxicity or haemolysis; Haemolysis (in words) (haemolytic activity): no toxicity or haemolysis |
| Clc1c2nssc-2c(Cl)c1Cl [Compound 10a, 4,5,6-Trichlorocyclopenta[d][1,2,3]dithiazole] | – | Inactive | – | 122 to 124 °C | – | – | – | – | – | – |
| N#Cc1c2nssc-2c(Cl)c1Cl [Compound 10b, 5,6-Dichlorocyclopenta[1,2,3]dithiazole-4-carbonitrile] | >32 | – | maintained activity | 217 to 219 °C | ≤ 0.25 µg/mL | > 32 µg/mL | > 32 µg/mL | ≤ 0.25 µg/mL | > 32 µg/mL | Activity against C. neoformans (in words) [1]: maintained activity; Activity against A. baumannii (in words) [2]: removed all activity; Toxicity (in words) (HEK293 cells): no toxicity; Activity against S. aureus (in words) [4]: removed all activity |
| CCOC(=O)c1c2nssc-2c(Cl)c1Cl [Compound 10c, Ethyl 5,6-dichlorocyclopenta[d][1,2,3]dithiazole-4-carboxylate] | >32 | – | selective for C. albicans | 80 to 82 °C | > 32 µg/mL | > 32 µg/mL | > 32 µg/mL | ≤ 0.25 µg/mL | > 32 µg/mL | Toxicity (in words) (HEK293 cells): no toxicity |
| Clc1c2n[se]sc-2c(Cl)c1Cl [Compound 11a, 4,5,6-Trichlorocyclopenta[d][1,2,3]thiaselenazole] | >32 | – | very potent | 117 to 119 °C | ≤ 0.25 µg/mL | ≤ 0.25 µg/mL | 0.52 µg/mL (≈ 1.78 µM) | ≤ 0.25 µg/mL | ≤ 0.25 µg/mL | Activity against C. neoformans (in words) [1]: very potent; Activity against A. baumannii (in words) [2]: very potent; Haemolysis (in words) (haemolytic activity): no haemolysis; Activity against S. aureus (in words) [4]: very potent |
| N#Cc1c2n[se]sc-2c(Cl)c1Cl [Compound 11b, 5,6-Dichlorocyclopenta[d][1,2,3]thiaselenazole-4-carbonitrile] | >32 | – | – | 171 to 173 °C | ≤ 0.25 µg/mL | > 32 µg/mL | > 32 µg/mL | ≤ 0.25 µg/mL | ≤ 0.25 µg/mL | Activity against S. aureus (in words) [4]: potent |
| CCOC(=O)c1c2n[se]sc-2c(Cl)c1Cl [Compound 11c, Ethyl 5,6-dichlorocyclopenta[d][1,2,3]thiaselenazole-4-carboxylate] | >32 | – | – | 188 to 190 °C | ≤ 0.25 µg/mL | > 32 µg/mL | 7 µg/mL (≈ 21.3 µM) | ≤ 0.25 µg/mL | ≤ 0.25 µg/mL | Haemolysis (in words) (haemolytic activity): no haemolysis |
| ClC1=C2SSN=C2c2ccccc2C(Cl)=C1Cl [Compound 12, 4,5,6-Trichlorobenzo[6,7]cyclohepta[1,2-d][1,2,3]dithiazole] | – | Inactive | – | 119 to 121 °C | – | – | – | – | – | – |
| ClC1=C2S[Se]N=C2c2ccccc2C(Cl)=C1Cl [Compound 13, 4,5,6-Trichlorobenzo[6,7]cyclohepta[1,2-d][1,2,3]thiaselenazole] | >32 | – | – | 144 to 145 °C | ≤ 0.25 µg/mL | > 32 µg/mL | 0.48 µg/mL (≈ 1.31 µM) | ≤ 0.25 µg/mL | ≤ 0.25 µg/mL | – |
| c1ccc2c(c1)N=C1SSN=C1O2 [Compound 14, Benzo[b][1,2,3]dithiazolo[5,4-e][1,4]oxazine] | – | not fruitful; also recorded: Inactive | – | 182 to 184 °C | – | – | – | – | – | – |
| c1ccc2c(c1)N=C1S[Se]N=C1O2 [Compound 15, Benzo[b][1,2,3]thiaselenazolo[5,4-e][1,4]oxazine] | >32 | – | recovered some antifungal activity | 178 to 180 °C | 2 µg/mL | > 32 µg/mL | > 32 µg/mL | ≤ 0.25 µg/mL | > 32 µg/mL | Activity against C. neoformans (in words) [1]: recovered some antifungal activity; Toxicity (in words) (HEK293 cells): no toxicity |
